{
  "source": "patent US12157810B1",
  "about": "(priority 2020, dated 2024)",
  "system": "cell culture",
  "data": [
    {"substance": "poly(alloocimene-b-isobutylene-b-alloocimene) [AIBA]", "values": [
      {"measurement": "cytotoxicity in cell culture studies", "result": "non-cytotoxicity"}
    ]}
  ]
}
